In the experiment the target is Neuronal acetylcholine receptor subunit alpha-7 (Homo sapiens, UniProt P36544). The experiment is described as follows: Agonist activity at alpha7 nAChR (unknown origin).

Structures are written as SMILES. A value given as a limit tells only on which side of the number the result lay.

Neuronal acetylcholine receptor subunit alpha-7, sequence (P36544 whole entry): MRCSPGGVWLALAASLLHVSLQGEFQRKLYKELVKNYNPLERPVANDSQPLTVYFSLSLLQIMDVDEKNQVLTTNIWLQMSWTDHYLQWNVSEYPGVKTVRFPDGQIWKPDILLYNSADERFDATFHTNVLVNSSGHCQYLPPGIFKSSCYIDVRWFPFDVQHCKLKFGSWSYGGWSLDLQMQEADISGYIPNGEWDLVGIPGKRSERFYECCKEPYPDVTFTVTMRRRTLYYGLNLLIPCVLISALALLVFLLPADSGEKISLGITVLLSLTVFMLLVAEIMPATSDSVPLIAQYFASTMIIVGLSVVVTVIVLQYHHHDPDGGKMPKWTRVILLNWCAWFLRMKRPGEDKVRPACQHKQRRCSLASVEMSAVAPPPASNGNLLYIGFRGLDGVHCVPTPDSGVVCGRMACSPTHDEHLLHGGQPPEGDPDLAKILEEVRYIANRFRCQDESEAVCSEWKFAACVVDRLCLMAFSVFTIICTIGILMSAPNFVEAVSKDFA

Broadly, the IC50 is the concentration that gives 50% inhibition. Take `COc1ccc(OC(=O)N2CCNCC2CCc2cccnc2)cc1` (stereo not given): the concentration for half-maximal inhibition (IC50) was > 5000 nM. For the compound `COc1ccc(NC(=O)N2CCNC[C@@H]2COc2cccnc2)cc1`, the concentration for half-maximal inhibition (IC50) stood at 19 nM. This lies in the double-digit nanomolar range. Compound `c1cncc(OC[C@H]2CNCCN2c2nc3ncccc3o2)c1` showed an IC50 of 6 nM. With `COc1ccc(NC(=O)N2CCNCC2CCc2cccnc2)cc1` (stereo not given), the IC50 is > 5000 nM. `COc1ccc(NC(=O)N2CCNCC2COc2cccnc2)cc1` (stereo not given): the concentration for half-maximal inhibition (IC50) was determined as 11 nM.

The values above are taken from ChEMBL document CHEMBL3808359, “Conformational analysis of 2-substituted piperazines” (Bioorg Med Chem Lett, 2016).
